Results on 1 molecule are retold here after US20050013862A1, “Functional powders for oral delivery” (Vectura Limited, priority 2001, published 2005).

This data set is described as follows: Twin Stage Impinger fine particle fraction. Format: physicochemical. The note with it: glass, 12.8 mm jet. The text has this:
A Twin Stage Impinger Apparatus (glass with a 12.8 mm jet) was used to determine the fine particle fraction of the formulations of Examples 10, 11 (steps 1 & 2), 11 (step 1 only), 14, and 15, with the following results: […]

As to `COc1ccc2c(c1)c(CC(=O)O)c(C)n2C(=O)c1ccc(Cl)cc1` [Raw indomethacin (pulverized), indomethacin], the “Average % Fine Particle Fraction at 601/min (n = 5)” value came out at 3.89%.
